Laboratory results taken from patent publication US20210040118A1, “IMMUNOMODULATORS, COMPOSITIONS AND METHODS THEREOF” (BETTA PHARMACEUTICALS CO., LTD, priority 2018, published 2021).

Target: T1, PD-1/PD-L1 (Homo sapiens, UniProt Q9NZQ7)
T1 construct: Recombinant human PD-L1 protein (19-238) with a His-tag at the C-terminus; purchased AcroBiosystems PD1-H5229 (PD-L1); PD1-H5257 (PD-1)
Experiment: PD-1/PD-L1 homogenous time-resolved fluorescence (HTRF) binding assay
Conditions: recombinant human PD-L1 (19-238) His-tag / human PD-1 (25-167) Fc tag, class symbols
Summary of the method: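 HTRF binding of human PD-1 (25-167, Fc-tagged) at 3 nM and PD-L1 (19-238, His-tagged) at 10 nM, preincubated 40 min with inhibitor in PBS pH 7.4, 0.05% Tween-20, 0.1% BSA, 1% DMSO, 25°C. Eu anti-IgG (1 nM) and anti-His-APC (20 nM) added, 60 min; 665/620 nm ratio; IC50 from curve fit.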

T1 sequence (Q9NZQ7 19-238): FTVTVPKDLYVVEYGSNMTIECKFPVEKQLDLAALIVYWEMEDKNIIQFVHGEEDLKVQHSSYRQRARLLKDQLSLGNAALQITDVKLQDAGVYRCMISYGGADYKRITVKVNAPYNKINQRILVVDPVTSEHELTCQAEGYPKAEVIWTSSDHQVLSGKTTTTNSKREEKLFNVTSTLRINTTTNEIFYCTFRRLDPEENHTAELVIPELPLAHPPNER

| Molecule | IC50 |
| --- | --- |
| Cc1c(-c2cccc(N(C)Cc3nc4c(s3)CNCC4)c2C)cccc1N(C)Cc1nc2c(s1)CNCC2 [Example 24, N3,N3′,2,2′-tetramethyl-N3,N3′-bis((4,5,6,7-tetrahydrothiazolo[5,4-c]pyridin-2-yl)methyl)-[1,1′-biphenyl]-3,3′-diamine] | 0.1 to 0.2 µM |
| Cc1nc(C(=O)Nc2cccc(-c3cccc4c3CCN4C(=O)c3nc(C)c(CN[C@H](C(=O)O)C4CCOCC4)s3)c2)sc1CN[C@H](C(=O)O)C1CCOCC1 [Example 63, (S)-2-((2-(3-(1-(5-(((S)-carboxy(tetrahydro-2H-pyran-4-yl)methylamino)methyl)-4-methylthiazole-2-carbonyl)indolin-4-yl)phenylcarbamoyl)-4-methylthiazol-5-yl)methylamino)-2-(tetrahydro-2H-pyran-4-yl)acetic acid] | < 0.025 µM |
| Cc1c(-c2cccc(N(C)C(=O)c3nc4ccc(N)cc4s3)c2C)cccc1N(C)C(=O)c1nc2c(s1)CNCC2 [Example 21, N-(3′-(6-amino-N-methylbenzo[d]thiazole-2-carboxamido)-2,2′-dimethyl-[1,1′-biphenyl]-3-yl)-N-methyl-4,5,6,7-tetrahydrothiazolo[5,4-c]pyridine-2-carboxamide] | 0.1 to 0.2 µM |
| O=C(c1ncc(CNCCO)s1)N1CCc2c(-c3cccc4c3CCN4C(=O)c3ncc(CNCCO)s3)cccc21 [Example 70, [4,4′-biindoline]-1,1′-diylbis((5-(((2-hydroxyethyl)amino)methyl)thiazol-2-yl)methanone)] | < 0.025 µM |
| CN(C)C(=O)CN1CCc2nc(C(=O)N3CCc4c(-c5cccc6c5CCN6C(=O)c5nc6c(s5)CN(CC(=O)N(C)C)CC6)cccc43)sc2C1 [Example 106, 2,2′-(([4,4′-biindoline]-1,1′-dicarbonyl)bis(6,7-dihydrothiazolo[5,4-c]pyridine-2,5(4H)-diyl))bis(N,N-dimethylacetamide)] | < 0.025 µM |
| 1,1′-bis((6,7-dihydro-4H-512-thiazolo[5,4-c]pyridin-2-yl)methyl)-4,4′-biindoline [Example 46] | < 0.025 µM |
| NC(=O)CN1CCc2nc(C(=O)Nc3cccc(-c4cccc(NC(=O)c5nc6c(s5)CN(CC(N)=O)CC6)c4Cl)c3Cl)sc2C1 [Example 90, N,N′-(2,2′-dichloro-[1,1′-biphenyl]-3,3′-diyl)bis(5-(2-amino-2-oxoethyl)-4,5,6,7-tetrahydrothiazolo[5,4-c]pyridine-2-carboxamide)] | < 0.025 µM |
| O=C(O)CN1CCc2nc(C(=O)Nc3cccc(-c4cccc(NC(=O)c5nc6c(s5)CN(CC(=O)O)CC6)c4Cl)c3Cl)sc2C1 [Example 65, 2,2′-((((2,2′-dichloro-[1,1′-biphenyl]-3,3′-diyl)bis(azanediyl))bis(carbonyl))bis(6,7-dihydrothiazolo[5,4-c]pyridine-2,5(4H)-diyl))diacetic acid] | < 0.025 µM |
| Cc1c(NC(=O)c2nc3c(s2)CN(CCCC(=O)O)CC3)cccc1-c1cccc(NC(=O)c2nc3c(s2)CN(CCCC(=O)O)CC3)c1C [Example 78, 4,4′-((((2,2′-dimethyl-[1,1′-biphenyl]-3,3′-diyl)bis(azanediyl))bis(carbonyl))bis(6,7-dihydrothiazolo[5,4-c]pyridine-2,5(4H)-diyl))dibutyric acid] | < 0.025 µM |
| Cc1c(NC(=O)c2nnc(CN)o2)cccc1-c1cccc(NC(=O)c2nnc(CN)o2)c1C [Example 18, N,N′-(2,2′-dimethyl-[1,1′-biphenyl]-3,3′-diyl)bis(5-(aminomethyl)-1,3,4-oxadiazole-2-carboxamide)] | 0.025 to 0.1 µM |
| CC(C)[C@H](NCc1cnc(C(=O)Nc2cccc(-c3cccc(NC(=O)c4ncc(CN[C@H](C(=O)O)C(C)C)s4)c3Cl)c2Cl)s1)C(=O)O [Example 69, ((2-((3′-(5-((((S)-1-carboxy-2-methylpropyl)amino)methyl)thiazole-2-carboxamido)-2,2′-dichloro-[1,1′-biphenyl]-3-yl)carbamoyl)thiazol-5-yl)methyl)-L-valine] | < 0.025 µM |

Second part, the molecule after the results:

| IC50 | Molecule |
| --- | --- |
| < 0.025 µM | Cc1c(Nc2nccc3cc(CNC(C)C(=O)O)cnc23)cccc1-c1cccc(Nc2nccc3cc(CNC(C)C(=O)O)cnc23)c1C (centres unmarked) [Example 140, 2,2′-(((((2,2′-dimethyl-[1,1′-biphenyl]-3,3′-diyl)bis(azanediyl))bis(1,7-naphthyridine-8,3-diyl))bis(methylene))bis(azanediyl))dipropionic acid] |
| < 0.025 µM | CN(CCO)Cc1cnc(C(=O)N2CCc3c(-c4cccc5c4CCN5C(=O)c4ncc(CN(C)CCO)s4)cccc32)s1 [Example 116, [4,4′-biindoline]-1,1′-diylbis((5-(((2-hydroxyethyl)(methyl)amino)methyl)thiazol-2-yl)methanone)] |
| < 0.025 µM | O=C(c1nc2c(s1)CN(CCOCCO)CC2)N1CCc2c(-c3cccc4c3CCN4C(=O)c3nc4c(s3)CN(CCOCCO)CC4)cccc21 [Example 120, [4,4′-biindoline]-1,1′-diylbis((5-(2-(2-hydroxyethoxy)ethyl)-4,5,6,7-tetrahydrothiazolo[5,4-c]pyridin-2-yl)methanone)] |
| < 0.025 µM | CNC(=O)CNCc1cnc2c(Nc3cccc(-c4cccc(Nc5nccc6cc(CNCC(=O)N(C)CCO)cnc56)c4C)c3C)nccc2c1 [Example 147, 2-(((8-((2,2′-dimethyl-3′-((3-(((2-(methylamino)-2-oxoethyl)amino)methyl)-1,7-naphthyridin-8-yl)amino)-[1,1′-biphenyl]-3-yl)amino)-1,7-naphthyridin-3-yl)methyl)amino)-N-(2-hydroxyethyl)-N-methylacetamide] |
| < 0.025 µM | Cc1c(Nc2nccc3cc(CN4CCOCC4)cnc23)cccc1-c1cccc(Nc2nccc3cc(CN4CCOCC4)cnc23)c1C [Example 151, 2,2′-dimethyl-N3,N3′-bis(3-(morpholinomethyl)-1,7-naphthyridin-8-yl)-[1,1′-biphenyl]-3,3′-diamine] |
| < 0.025 µM | Cc1c(Nc2nccc3cc(CNCC(=O)O)cnc23)cccc1-c1cccc(Nc2nccc3cc(CN4CC[C@H](N(C)C)C4)cnc23)c1C [Example 154, (S)-((8-((3′-((3-((3-(dimethylamino)pyrrolidin-1-yl)methyl)-1,7-naphthyridin-8-yl)amino)-2,2′-dimethyl-[1,1′-biphenyl]-3-yl)amino)-1,7-naphthyridin-3-yl)methyl)glycine] |
| 0.1 to 0.2 µM | Cc1c(NC(=O)c2ccc3c(n2)CCN(CC(=O)OC(C)(C)C)C3)cccc1-c1cccc(NC(=O)c2ccc3c(n2)CCN(CC(=O)OC(C)(C)C)C3)c1C [Example 172, di-tert-butyl 2,2′-((((2,2′-dimethyl-[1,1′-biphenyl]-3,3′-diyl)bis(azanediyl))bis(carbonyl))bis(7,8-dihydro-1,6-naphthyridine-2,6(5H)-diyl))diacetate] |
| < 0.025 µM | O=C(c1nc2c(s1)CN(CCCB(O)O)CC2)N1CCc2c(-c3cccc4c3CCN4C(=O)c3nc4c(s3)CN(CCCB(O)O)CC4)cccc21 [Example 121, ((([4,4′-biindoline]-1,1′-dicarbonyl)bis(6,7-dihydrothiazolo[5,4-c]pyridine-2,5(4H)-diyl))bis(propane-3,1-diyl))diboronic acid] |
| < 0.025 µM | Cc1c(Nc2nccc3cc(CN4CCCCC4C(=O)O)cnc23)cccc1-c1cccc(Nc2nccc3cc(CN4CCCCC4C(=O)O)cnc23)c1C (centres unmarked) [Example 155, 1,1′-((((2,2′-dimethyl-[1,1′-biphenyl]-3,3′-diyl)bis(azanediyl))bis(1,7-naphthyridine-8,3-diyl))bis(methylene))bis(piperidine-2-carboxylic acid)] |
